{"source": "paper PMC6078708", "about": "(Neuropharmacology, 2018)", "key": {"[1]": {"target": "T1, mouse 5-HT3AR (Mus musculus, UniProt P23979)", "T1 sequence (P23979 24-489)": "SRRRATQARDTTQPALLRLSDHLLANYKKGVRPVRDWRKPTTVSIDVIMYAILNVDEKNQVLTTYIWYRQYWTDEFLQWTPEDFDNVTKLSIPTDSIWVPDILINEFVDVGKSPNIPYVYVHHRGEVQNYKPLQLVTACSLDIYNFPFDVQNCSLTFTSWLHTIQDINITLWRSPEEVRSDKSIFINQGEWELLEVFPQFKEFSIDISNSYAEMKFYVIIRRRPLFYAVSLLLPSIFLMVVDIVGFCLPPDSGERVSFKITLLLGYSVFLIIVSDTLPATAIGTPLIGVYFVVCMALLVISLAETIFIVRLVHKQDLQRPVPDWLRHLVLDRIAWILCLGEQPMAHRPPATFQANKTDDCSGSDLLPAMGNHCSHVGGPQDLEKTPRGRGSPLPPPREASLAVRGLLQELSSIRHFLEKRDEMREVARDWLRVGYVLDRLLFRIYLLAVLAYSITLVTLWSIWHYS", "details": "for response evoked by maximal agonist concentration in presence of compound: compound 100 μM, 30 μM 5-HT", "method": "(§1) Site-directed mutagenesis was performed using the QuikChange mutagenesis kit (Agilent Technologies) and verified by nucleotide sequencing (Source Bioscience).\n(§2) Heterologous expression was achieved by cytoplasmic injection of in vitro transcribed cRNA. Prior to in vitro synthesis of cRNA plasmid cDNA was linearized by restriction enzyme digestion and purified with QIAQuik PCR purification kit (Qiagen). In vitro synthesis of cRNA was performed using mMessage mMachine SP6 and T7 transcription kits (ThermoFisher Scientific). Oocytes were injected with approximately 9 ng cRNA using a Drummond variable volume microinjector. […] Experiments were performed on oocytes after 3–5 days of incubation. […] Application of compounds was controlled by LabChart software (AD Instruments) using a BPS-8 solenoid valve solution exchange system (ALA Scientific Inc). Allosteric modulators were pre-applied for 30 s before co-application with agonist.\n(§3) Data are presented as means ± SEM of at least three independent experiments, that were conducted on separate oocytes. For multiple comparisons, statistical significance was determined with an unpaired one-way analysis of variance (ANOVA). Post-hoc analysis was performed with a Tukey multiple comparison test. For individual comparisons, statistical significance was determined using unpaired t-tests."}, "[2]": {"target": "α7/5-HT3AR chimera (extracellular domain of human α7 nAChR fused to transmembrane and C-terminal domain of mouse 5-HT3AR) (UniProt P23979+P36544, M226I/T225I)", "sequence (P36544+P23979 fused P36544:T225I/P36544:M226I)": "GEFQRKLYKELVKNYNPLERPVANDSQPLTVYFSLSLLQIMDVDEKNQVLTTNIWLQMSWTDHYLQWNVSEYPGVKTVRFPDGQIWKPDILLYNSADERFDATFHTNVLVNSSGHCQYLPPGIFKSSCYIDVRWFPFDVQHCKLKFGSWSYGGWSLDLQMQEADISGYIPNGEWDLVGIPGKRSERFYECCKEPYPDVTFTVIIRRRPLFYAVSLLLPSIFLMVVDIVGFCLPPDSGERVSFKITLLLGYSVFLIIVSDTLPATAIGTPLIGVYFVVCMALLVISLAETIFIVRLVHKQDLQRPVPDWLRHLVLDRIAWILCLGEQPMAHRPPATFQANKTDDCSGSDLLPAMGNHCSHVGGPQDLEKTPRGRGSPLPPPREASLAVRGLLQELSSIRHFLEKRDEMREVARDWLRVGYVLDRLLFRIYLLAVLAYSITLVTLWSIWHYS", "details": "for effect on response evoked by maximal agonist concentration: compound 100 μM, 3 mM ACh", "method": "as §1, §2, §3"}, "[3]": {"target": "T2, α7 nAChR L247A (Homo sapiens, UniProt P36544, L247A/L270A)", "T2 construct": "expressed in transfected cells; host or cells: Xenopus laevis oocytes, injected with in vitro transcribed cRNA", "T2 sequence (P36544 23-502 L247A/L270A)": "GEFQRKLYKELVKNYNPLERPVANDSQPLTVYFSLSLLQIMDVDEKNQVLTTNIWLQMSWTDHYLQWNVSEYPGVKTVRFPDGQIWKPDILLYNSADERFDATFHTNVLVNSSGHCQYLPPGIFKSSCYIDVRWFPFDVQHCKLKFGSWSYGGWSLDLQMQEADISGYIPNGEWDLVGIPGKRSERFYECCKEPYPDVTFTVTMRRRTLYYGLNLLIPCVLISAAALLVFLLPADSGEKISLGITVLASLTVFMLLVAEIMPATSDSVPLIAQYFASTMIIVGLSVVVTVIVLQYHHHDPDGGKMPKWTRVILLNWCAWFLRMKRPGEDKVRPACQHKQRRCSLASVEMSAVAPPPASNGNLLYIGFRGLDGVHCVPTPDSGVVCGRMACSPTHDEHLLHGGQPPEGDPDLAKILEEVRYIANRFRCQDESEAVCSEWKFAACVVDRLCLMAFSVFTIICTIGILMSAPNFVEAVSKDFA", "assay": "Two-electrode voltage-clamp recording of mutated α7 nAChR (L247A) in Xenopus oocytes", "assay_type": "cell-based", "method": "as §1, §2, §3"}, "[4]": {"target": "T3, α7 nAChR M260L (Homo sapiens, UniProt P36544, M283L)", "T3 construct": "expressed in transfected cells; host or cells: Xenopus laevis oocytes, injected with in vitro transcribed cRNA", "T3 sequence (P36544 23-502 M283L)": "as the sequence (P36544 23-502 L247A/L270A) above, with A225L, A248L, M261L counted along it", "assay": "Two-electrode voltage-clamp recording of mutated α7 nAChR (M260L) in Xenopus oocytes", "assay_type": "cell-based", "details": "for activity at 100 µM: read-out: normalised response to EC50 ACh in presence of compound", "method": "as §1, §2, §3"}, "[5]": {"target": "T4, human α7 nAChR (Homo sapiens, UniProt P36544)", "T4 construct": "expressed in transfected cells; host or cells: Xenopus laevis oocytes, injected with in vitro transcribed cRNA", "T4 sequence (P36544 23-502)": "as the sequence (P36544 23-502 L247A/L270A) above, with A225L, A248L counted along it", "assay": "Two-electrode voltage-clamp recording of wild-type human α7 nAChR expressed in Xenopus oocytes", "assay_type": "cell-based", "details": "for nature of antagonism against a range of ACh concentrations / response evoked by maximal agonist concentration in presence of compound: compound 100 μM; for response evoked by maximal agonist concentration in presence of compound: 3 mM ACh; for response to an EC50 concentration of ACh, % of the control response: compound 1 mM, ACh 100 μM; for effect when applied alone: no ACh; for activity at 100 µM: read-out: normalised response to EC50 ACh in presence of compound", "method": "as §2, with “Allosteric modulators were pre-applied for 30 s before co-application with agonist.” left out\nas §3"}, "[6]": {"target": "α7 nAChR T288A (Homo sapiens, UniProt P36544, T311A)", "sequence (P36544 23-502 T311A)": "as the sequence (P36544 23-502 L247A/L270A) above, with A225L, A248L, T289A counted along it", "assay": "cell-based", "method": "as §1, §2, §3"}, "[7]": {"target": "α7 nAChR S248A (Homo sapiens, UniProt P36544, S271A)", "sequence (P36544 23-502 S271A)": "as the sequence (P36544 23-502 L247A/L270A) above, with A225L, A248L, S249A counted along it", "assay": "cell-based", "method": "as §1, §2, §3"}, "[8]": {"target": "T5, α7 nAChR S222M (Homo sapiens, UniProt P36544, S245M)", "T5 construct": "expressed in transfected cells; host or cells: Xenopus laevis oocytes, injected with in vitro transcribed cRNA", "T5 sequence (P36544 23-502 S245M)": "as the sequence (P36544 23-502 L247A/L270A) above, with S223M, A225L, A248L counted along it", "assay": "Two-electrode voltage-clamp recording of mutated α7 nAChR (S222M) in Xenopus oocytes", "assay_type": "cell-based", "method": "as §1, §2, §3"}, "[9]": {"details": "read-out: normalised response to EC50 ACh in presence of compound"}, "[10]": {"details": "co-application only, no pre-application"}, "[11]": {"details": "furosemide 1 mM, EC50 agonist (100 μM ACh)"}, "[12]": {"details": "furosemide 1 mM, maximal agonist (3 mM ACh)"}, "[13]": {"details": "furosemide 1 mM, EC50 ACh (100 μM)"}}, "note": "Like-named read-outs stand apart in the source and are kept apart here."}
{"smiles": "Cc1cc(C)[n+](CCc2ccc(S(N)(=O)=O)cc2)c(C)c1", "note": "[DB04763, 1-N-(4-sulfamoylphenyl-ethyl)-2,4,6-tri methyl p yr id i ni u m]", "values": [{"measurement": "response evoked by maximal agonist concentration in presence of compound", "setting": "[1]", "value": "92.1 ± 1.7", "unit": "%"}, {"measurement": "effect on response evoked by maximal agonist concentration", "setting": "[2]", "value": "not significantly different to their effects on 5-HT3ARs"}, {"measurement": "activity at 100 µM", "setting": "[3]; [9]", "value": "52.4 ± 0.8", "unit": "%"}, {"measurement": "activity at 100 µM", "setting": "[4]", "value": "30.1 ± 2.4", "unit": "%"}, {"measurement": "type of allosteric modulation", "setting": "[5]", "value": "NAMs"}, {"measurement": "antagonism in the absence of pre-application", "setting": "[5]; [10]", "value": "significant antagonism"}, {"measurement": "nature of antagonism against a range of ACh concentrations", "setting": "[5]", "value": "non-surmountable"}, {"measurement": "response evoked by maximal agonist concentration in presence of compound", "setting": "[5]", "value": "20.0 ± 1.3", "unit": "%"}, {"measurement": "response to an EC50 concentration of ACh, % of the control response", "setting": "[5]", "value": "3.4 ± 0.9", "unit": "%"}, {"measurement": "effect when applied alone", "setting": "[5]; compound alone", "value": "None of the three compounds had any significant effect when applied alone"}, {"measurement": "IC50", "setting": "[5]; read-out: IC50 for inhibition of agonist-evoked responses", "value": "46.4 ± 2.2", "unit": "µM"}, {"measurement": "activity at 100 µM", "setting": "[5]", "value": "20.1 ± 3.1", "unit": "%"}]}
{"smiles": "CNS(=O)(=O)c1ccc(N/C=C2\\C(=O)Nc3ccccc32)cc1", "note": "[DB08122, N-methyl-4-{[(2-oxo-1,2-dihydro-3h-indol-3-ylidene)methyl]amino}b en z en esul fon ami de]", "values": [{"measurement": "response evoked by maximal agonist concentration in presence of compound", "setting": "[1]", "value": "did not cause significant inhibition"}, {"measurement": "effect on response evoked by maximal agonist concentration", "setting": "[2]", "value": "not significantly different to their effects on 5-HT3ARs"}, {"measurement": "activity at 100 µM", "setting": "[6]; [9]", "value": "65 ± 1.2", "unit": "%"}, {"measurement": "activity at 100 µM", "setting": "[7]; [9]", "value": "99.6 ± 1.6", "unit": "%"}, {"measurement": "activity at 100 µM", "setting": "[4]", "value": "101 ± 3.1", "unit": "%"}, {"measurement": "IC50", "setting": "[5]", "value": "1700 ± 300", "unit": "µM"}, {"measurement": "type of allosteric modulation", "setting": "[5]", "value": "NAMs"}, {"measurement": "antagonism in the absence of pre-application", "setting": "[5]; [10]", "value": "significant antagonism"}, {"measurement": "nature of antagonism against a range of ACh concentrations", "setting": "[5]", "value": "non-surmountable"}, {"measurement": "response evoked by maximal agonist concentration in presence of compound", "setting": "[5]", "value": "76.0 ± 4.8", "unit": "%"}, {"measurement": "response to an EC50 concentration of ACh, % of the control response", "setting": "[5]", "value": "60.6 ± 1.2", "unit": "%"}, {"measurement": "effect when applied alone", "setting": "[5]; compound alone", "value": "None of the three compounds had any significant effect when applied alone"}, {"measurement": "activity at 100 µM", "setting": "[5]", "value": "90.6 ± 1.8", "unit": "%"}, {"measurement": "activity at 100 µM", "setting": "[8]; [9]", "value": "77.2 ± 3.7", "unit": "%"}]}
{"smiles": "NS(=O)(=O)c1cc(C(=O)O)c(NCc2ccco2)cc1Cl", "note": "[furosemide, Furosemide]", "values": [{"measurement": "agonist effect when applied alone", "setting": "[1]; compound alone, no 5-HT", "value": "no agonist effect"}, {"measurement": "agonist-evoked response in presence of furosemide", "setting": "[1]; furosemide 1 mM, EC50 agonist (1 μM 5-HT)", "value": "93.9 ± 3.7", "unit": "%"}, {"measurement": "agonist-evoked response in presence of furosemide (potentiation)", "setting": "[1]; furosemide 1 mM, maximal agonist (30 μM 5-HT)", "value": "108 ± 2", "unit": "%"}, {"measurement": "agonist-evoked response in presence of furosemide", "setting": "[2]; [11]", "value": "98.2 ± 3.4", "unit": "%"}, {"measurement": "agonist-evoked response in presence of furosemide (potentiation)", "setting": "[2]; [12]", "value": "108 ± 2", "unit": "%"}, {"measurement": "ACh-evoked response in presence of furosemide, relative to control response", "setting": "[3]; furosemide 1 mM, EC50 ACh (10 μM)", "value": "99.9 ± 4.3", "unit": "%"}, {"measurement": "ACh-evoked response in presence of furosemide, relative to control response", "setting": "[6]; [13]", "value": "99.2 ± 1.2", "unit": "%"}, {"measurement": "ACh-evoked response in presence of furosemide, relative to control response", "setting": "[7]; [13]", "value": "102 ± 5.6", "unit": "%"}, {"measurement": "agonist-evoked response in presence of furosemide, of the control response", "setting": "[4]; [13]", "value": "63 ± 8", "unit": "%"}, {"measurement": "type of allosteric modulation", "setting": "[5]", "value": "type I PAM"}, {"measurement": "potentiation of ACh responses in the absence of pre-application", "setting": "[5]; [10]", "value": "no significant potentiation"}, {"measurement": "maximum level of potentiation of ACh responses", "setting": "[5]; furosemide 1 mM", "value": "1.6 ± 0.1", "unit": "fold"}, {"measurement": "effect when applied alone", "setting": "[5]; furosemide 1 mM", "value": "no effect"}, {"measurement": "agonist-evoked response in presence of furosemide (potentiation)", "setting": "[5]; [11]", "value": "136 ± 7", "unit": "%"}, {"measurement": "agonist-evoked response in presence of furosemide (potentiation)", "setting": "[5]; [12]", "value": "149 ± 6", "unit": "%"}, {"measurement": "EC50", "setting": "[5]; read-out: EC50 for potentiation of agonist-evoked responses", "value": "200 ± 40", "unit": "µM"}, {"measurement": "potentiation of an EC50 concentration of ACh by furosemide", "setting": "[8]; [13]", "value": "244 ± 25", "unit": "%"}]}
